Laboratory results: ChEMBL document CHEMBL1146874, “Metabolism investigation leading to novel drug design 2: orally active prostacyclin mimetics. Part 5” (Bioorg Med Chem Lett, 2006)

How the values were obtained:
Homo sapiens = species on record: Homo sapiens; assay: Inhibition of ADP-induced platelet aggregation in human platelet rich plasma; assay type: functional, organism-based
Rattus norvegicus [1] = species on record: Rattus norvegicus; assay: Inhibition of ADP-induced platelet aggregation in rat platelet rich plasma; assay type: functional, organism-based
[2] = Beta half life in rat at 10 mg/kg, iv; assay type: ADME, organism-based; design: dose 10 mg/kg, route intravenous; conditions: in vivo
[3] = Total clearance in rat at 10 mg/kg, iv; assay type: ADME, organism-based; design: dose 10 mg/kg, route intravenous; conditions: in vivo
[4] = Cmax in rat at 10 mg/kg, po; assay type: ADME, organism-based; design: dose 10 mg/kg, route oral; conditions: in vivo
[5] = Intrinsic clearance in rat liver microsomes after 60 mins; assay type: ADME, Microsome
Rattus norvegicus [6] = assay: AUC in rat at 10 mg/kg, po; assay type: ADME, organism-based, Plasma; design: dose 10 mg/kg, route oral; conditions: in vivo
[7] = Bioavailability in rat at 10 mg/kg, […]; assay type: ADME, organism-based; conditions: in vivo
[8] = Blood to plasma ratio in human at 12.5 ug, po; assay type: ADME, organism-based; conditions: read-out: BPR
[9] = Half life in human at 12.5 ug, po; assay type: ADME, organism-based; conditions: in vivo
[10] = AUC in human at 12.5 ug, po; assay type: ADME, organism-based; conditions: plasma
[11] = Cmax in human at 12.5 ug, po; assay type: ADME, organism-based; design: dose 12.5 ug, route oral; conditions: in vivo
[12] = Bioavailability in human at 12.5 ug, po; assay type: ADME, organism-based; conditions: in vivo
Rattus norvegicus [13] = assay: Stability in orally dosed rat measured as glucuronide of M2 level in bile; assay type: ADME, organism-based; conditions: in vivo, po
Rattus norvegicus [14] = assay: Stability in orally dosed rat measured as M2 level in bile; assay type: ADME, organism-based; conditions: in vivo, po

Row | Structure (SMILES) | IC50 (Homo sapiens) [nM] | IC50 (Rattus norvegicus [1]) [nM] | CLint scaled [5] [mL/min/kg] | other results
1 | O=C(O)COc1cccc2c1CC[C@](O)(COC(=O)N(c1ccc(F)cc1)c1ccc(F)cc1)C2 | 59 | > 10000 | 4.6 | half-life [2]: 3 h; clearance [3]: 30.3 mL/min/kg; Cmax [4]: 575 ng/mL; AUC (Rattus norvegicus [6]): 1610 ng·h/mL; bioavailability [7]: 29.5%
2 | O=C(O)COc1cccc2c1CC[C@](O)(COC(=O)N(c1ccc(F)cc1)c1cccc(F)c1)C2 | 25 | > 10000 | 11.7 | –
3 | O=C(O)COc1cccc2c1CC[C@](O)(COC(=O)N(c1ccccc1)c1ccc(F)cc1)C2 | 13 | 4580 | 10.3 | half-life [2]: 1.6 h; clearance [3]: 32.9 mL/min/kg; Cmax [4]: 434 ng/mL; AUC (Rattus norvegicus [6]): 961 ng·h/mL; bioavailability [7]: 19.2%
4 | O=C(O)COc1cccc2c1CC[C@](O)(COC(=O)N(c1ccccc1F)c1ccccc1F)C2 | 63 | – | 44.8 | –
5 | O=C(O)COc1cccc2c1CC[C@](O)(COC(=O)N(c1ccccc1)c1ccc(Br)cc1)C2 | 49 | 6490 | 12.3 | –
6 | O=C(O)COc1cccc2c1CC[C@](O)(COC(=O)N(c1cccc(F)c1)c1cccc(F)c1)C2 | 14 | > 10000 | 13.5 | –
7 | O=C(O)COc1cccc2c1CC[C@](O)(COC(=O)N(c1ccc(F)cc1)c1ccccc1F)C2 | 22 | 5110 | 11.8 | –

Continued, in another order:

Row | IC50 (Homo sapiens) [nM] | IC50 (Rattus norvegicus [1]) [nM] | CLint scaled [5] [mL/min/kg] | Structure (SMILES) | other results
8 | 1290 | > 10000 | – | O=C(O)COc1cccc2c1CC[C@](O)(COC(=O)N(c1ccccc1)c1ccccc1)[C@H]2O | –
9 | 18 | – | 31.9 | O=C(O)COc1cccc2c1CC[C@](O)(COC(=O)N(c1ccccc1)c1ccccc1)C2 | blood plasma ratio [8]: 0.57; half-life [9]: 1.5 h; AUC [10]: 0.327 ng·h/mL; Cmax [4]: 282 ng/mL; Cmax [11]: 0.157 ng/mL; AUC (Rattus norvegicus [6]): 601 ng·h/mL; bioavailability [12]: 55%; bioavailability [7]: 9.6%
10 | 198 | > 10000 | – | O=C(O)COc1cccc2c1C(O)C[C@](O)(COC(=O)N(c1ccccc1)c1ccccc1)C2 (stereo partly drawn) | –
11 | 35 | 2490 | – | O=C(O)COc1cccc2c1CC[C@](O)(COC(=O)N(c1ccccc1)c1ccc(O)cc1)C2 | Stability (Rattus norvegicus [13]): 33%; Stability (Rattus norvegicus [14]): 12%
